# Reference: US7851437B2, “Drug conjugates and their use for treating cancer, an autoimmune disease or an infectious disease” (Seattle Genetics Inc., priority 2002, dated 2010)
# *1 amine or outer side, *2 acyl side, *3 side chain or, on linkers, in order; H or OH if unused. Where a SMILES comes first, the peptide text is derived from it. [ ]: non-standard residue; d: D form. The star is where a group is joined. Dolaproine = CO[C@@H]([C@@H]1CCCN1)[C@@H](C)C(=O)O; Phenylenediamine(1,4) = c1cc(N[*:2])ccc1N[*:1]; Dil = CC[C@H](C)[C@H](NC)[C@@H](CC(=O)O)OC; NMe2Val = CC(C)[C@@H](C(=O)*)N(C)C; X1 = C[C@@H](N*)[C@@H](O)c1ccccc1; NMeV = CN[C@H](C(=O)O)C(C)C
# System: H3396 human breast carcinoma cells (cBR96 antigen positive, cAC10 antigen negative)
# Assay: In vitro cytotoxicity, Alamar Blue assay, H3396 cells
# Assay type: cell-based
# Conditions: exposure for 1 hour
# From the text: The cell lines used were H3396 human breast carcinoma (cBR96 antigen positive, cAC10 antigen negative), HCT-116 human colorectal carcinoma (cBR96 and cAC10 antigen negative), and Karpas human anaplastic large cell lymphoma (ALCL) (cBR96 antigen negative, cAC10 antigen positive). These cell lines are available from ATCC. CD30-positive Hodgkin's Disease (HD) cell line L540 and the ALCL cell line Karpas 299 were obtained from the Deutsche Sammlung von Mikroorganism and Zellkulturen GmbH (Braunschweig, Germany). L540cy, a derivative of the HD line L540 adapted to xenograft growth, was provided by Dr. Phil Thorpe (U of Texas Southwestern Medical Center, Dallas, Tex.). Cell lines were grown in RPMI-1640 media (Life Technologies Inc., Gaithersburg, Md.) supplemented with 10% fetal bovine serum.H3396 cells in RPMI containing 10% fetal bovine serum (referred to as medium) were plated in 96-well plates at approximately 3,000-10,000 cells/well and allowed to adhere overnight. The non-adherent Karpas cell line was plated out at approximately 10,000 cells/well at the initiation of the assay. Various concentrations of illustrative Compounds of the Invention in medium were added in triplicate, and after the times indicated IN FIGS. 1-7, the medium was removed, and the cells were washed with fresh medium three times. After a 96 hour incubation period at 37° C., Alamar Blue was added and cell viability was determined 4 hours later as described by Ahmed S A, Gogal R M Jr, Walsh J E., J. Immunol. Methods, 170, 211-224, 1994.
# [1] = concentrations between 0.01 mM and 1.0 mM
Compound,cytotoxicity (FIG. 1) [1],cytotoxicity (FIG. 1) (concentrations of up to 0.01 mM)
"CC[C@H](C)[C@@H]([C@@H](CC(=O)N1CCC[C@H]1[C@H](OC)[C@@H](C)C(=O)N[C@@H](Cc1ccccc1)C(=O)Nc1ccc(N)cc1)OC)N(C)C(=O)[C@@H](NC(=O)[C@H](C(C)C)N(C)C)C(C)C [Compound 53] (NMe2Val-V[Dil][Dolaproine]F-{Phenylenediamine(1,4)})",substantially equal cytotoxicity,more cytotoxic than Compound 49
CC[C@H](C)[C@@H]([C@@H](CC(=O)N1CCC[C@H]1[C@H](OC)[C@@H](C)C(=O)N[C@H](C)[C@@H](O)c1ccccc1)OC)N(C)C(=O)[C@@H](NC(=O)[C@@H](NC)C(C)C)C(C)C [Compound 49] (H-[NMeV]V[Dil][Dolaproine]-X1),substantially equal cytotoxicity,–
